Reference: the supplement of paper PMC5908809

Key:
[1] = system: normal NK cells expanded with K562-aAPC; assay: percent inhibition of viability; higher = more inhibition; conditions: 72 h, IL-2 2.5 ng/mL
Method: (§1)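 Drug sensitivity and resistance testing on K562-aAPC-expanded normal NK cells: 5 concentrations (10-fold steps over a 10,000-fold range), 72 h at 37 °C, viability by CellTiter-Glo normalised to DMSO and benzethonium chloride controls; DSS from the fitted curve.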

[2] = system: normal NK cells expanded with K562-aAPC; assay: drug sensitivity score (DSS) (DSS units); higher = more sensitive; extreme values may be limits of the assay; conditions: 72 h; IL-2 2.5 ng/mL
Method: as §1

NK-YS (IL-2 2.5 ng/mL) [3] = assay: percent inhibition of viability; higher = more inhibition; conditions: 72 h
KHYG-1 (IL-2 2.5 ng/mL) [4] = assay: as above; conditions: 72 h
[5] = system: normal primary NK cells, pool 3 (3 donors) (IL-2 2.5 ng/mL); assay: as above; conditions: 72 h
KAI3 (IL-2 2.5 ng/mL) [6] = assay: as above; conditions: 72 h
NK-92 (IL-2 2.5 ng/mL) [7] = assay: as above; conditions: 72 h
[8] = system: normal primary NK cells, pool 1 (3 donors), resting (IL-2 0 ng/mL); assay: as above; conditions: 72 h
[9] = system: normal primary NK cells, pool 1 (3 donors) (IL-2 2.5 ng/mL); assay: as above; conditions: 72 h
NKL (IL-2 2.5 ng/mL) [10] = assay: as above; conditions: 72 h
YT (IL-2 2.5 ng/mL) [11] = assay: as above; conditions: 72 h
[12] = system: normal primary NK cells, pool 2 (3 donors) (IL-2 2.5 ng/mL); assay: as above; conditions: 72 h
IMC-1 (IL-2 20 ng/mL) [13] = assay: as above; conditions: 72 h
DERL-7 (IL-2 2.5 ng/mL) [14] = assay: as above; conditions: 72 h
SNK-6 (IL-2 2.5 ng/mL) [15] = assay: as above; conditions: 72 h
NK-YS (IL-2 2.5 ng/mL) [16] = assay: drug sensitivity score (DSS) (DSS units); higher = more sensitive; extreme values may be limits of the assay; conditions: 72 h
KHYG-1 (IL-2 2.5 ng/mL) [17] = assay: as above; conditions: 72 h
[18] = system: normal primary NK cells, pool 3 (3 donors) (IL-2 2.5 ng/mL); assay: as above; conditions: 72 h
KAI3 (IL-2 2.5 ng/mL) [19] = assay: as above; conditions: 72 h
NK-92 (IL-2 2.5 ng/mL) [20] = assay: as above; conditions: 72 h
[21] = system: normal primary NK cells, pool 1 (3 donors), resting (IL-2 0 ng/mL); assay: as above; conditions: 72 h
[22] = system: normal primary NK cells, pool 1 (3 donors) (IL-2 2.5 ng/mL); assay: as above; conditions: 72 h
NKL (IL-2 2.5 ng/mL) [23] = assay: as above; conditions: 72 h
YT (IL-2 2.5 ng/mL) [24] = assay: as above; conditions: 72 h
[25] = system: normal primary NK cells, pool 2 (3 donors) (IL-2 2.5 ng/mL); assay: as above; conditions: 72 h
IMC-1 (IL-2 20 ng/mL) [26] = assay: as above; conditions: 72 h
DERL-7 (IL-2 2.5 ng/mL) [27] = assay: as above; conditions: 72 h
SNK-6 (IL-2 2.5 ng/mL) [28] = assay: as above; conditions: 72 h

CS(=O)(=O)c1ccc(C(=O)Nc2ccc(Cl)c(-c3ccccn3)c2)c(Cl)c1 [Vismodegib] (max concentration tested 10000 nM)
percent inhibition of viability [%]
Conditions | 1 nM | 10 nM | 100 nM | 1000 nM | 10000 nM
DERL-7 (IL-2 2.5 ng/mL) [14] | 5.54 | 5.58 | 5.06 | 6.24 | 36.2
IMC-1 (IL-2 20 ng/mL) [13] | -2.4 | 2.13 | -1.82 | 2.66 | 8.93
KAI3 (IL-2 2.5 ng/mL) [6] | -6.47 | -10.6 | -10.8 | 8.7 | 6.77
KHYG-1 (IL-2 2.5 ng/mL) [4] | -7.27 | -4.1 | -4.53 | -3.56 | 13.7
NK-92 (IL-2 2.5 ng/mL) [7] | 1.83 | 1.49 | -0.7 | 17.8 | 59.3
NK-YS (IL-2 2.5 ng/mL) [3] | -6.25 | -5.83 | -1.92 | 0.14 | 14.4
NKL (IL-2 2.5 ng/mL) [10] | -2.06 | -5.75 | 8.65 | 9.14 | 39.8
SNK-6 (IL-2 2.5 ng/mL) [15] | -24.4 | -21.3 | -33.1 | -9.73 | 9.74
YT (IL-2 2.5 ng/mL) [11] | -2.78 | -9.59 | 3.13 | -6.38 | 24.6
[1] | -6.55 | -2.58 | -4.57 | 6.27 | 3.14
[5] | -5.07 | -0.78 | 8.43 | -1.07 | 0.11
[8] | -4.18 | 4.86 | 12.4 | 12.3 | 11.2
[9] | -0.96 | 12.3 | 5.5 | 3.58 | 12.3
[12] | -4.51 | 8.63 | 4.94 | 7.5 | 11.8

Conditions | drug sensitivity score
DERL-7 (IL-2 2.5 ng/mL) [27] | 2.77
IMC-1 (IL-2 20 ng/mL) [26] | 0
KAI3 (IL-2 2.5 ng/mL) [19] | 0
KHYG-1 (IL-2 2.5 ng/mL) [17] | 0.07
NK-92 (IL-2 2.5 ng/mL) [20] | 5.87
NK-YS (IL-2 2.5 ng/mL) [16] | 0.2
NKL (IL-2 2.5 ng/mL) [23] | 3.21
SNK-6 (IL-2 2.5 ng/mL) [28] | 0
YT (IL-2 2.5 ng/mL) [24] | 0.65
[2] | 0
[18] | 0
[21] | 1.51
[22] | 0
[25] | 0.05
